Reference: patent US11260072B2, “MicroRNA-based methods and assays for osteocarcinoma” (3-D Matrix, Ltd., priority 2011, dated 2022)
d = 2'-deoxy (DNA); r = 2'-OH (RNA)

What was measured:
143B-luc = experiment: spontaneous lung metastasis model of osteosarcoma (143B-luc implanted orthotopically into tibia); assay type: in vivo, athymic nude mice
Protocol: (§1) Tumor transplantation experiments. Animal experiments were performed in compliance with the guidelines of the Institute for Laboratory Animal Research, National Cancer Center Research Institute. Athymic nude mice or NOD/SCID mice (CLEA Japan) were purchased at 4 weeks of age and given at least 1 week to adapt to their new environment prior to tumor transplantation. On day 0, mice were anesthetized with 3% isoflurane and the right leg disinfected with 70% ethanol. Cells were aspirated into a 1 mL tuberculin syringe fitted with a 27-G needle. The needle was inserted through the cortex of the anterior tuberosity of the tibia with a rotating movement to avoid cortical fracture. Once the bone was traversed, the needle was inserted further to fracture the posterior cortex of the tibia. A 100 μL volume of solution containing freshly isolated CD133^high and CD133^low HOS-Luc (10^2, 10^3, 10^4, 10^5 cells per site) or 143B-Luc (1.5×10^6) was injected while slowly moving back the needle.
Monitoring tumor growth, lung metastasis, and toxicity with/without LAN-anti-miR-133a. For the assessment of tumorigenicity between CD133^high and CD133^low HOS-Luc cells, NOD/SCID mice were injected with D-luciferin (150 mg/kg, Promega) by intraperitoneal injection. Ten minutes later, photons from firefly luciferase were counted using the IVIS imaging system (Xenogen Corp.) according to the manufacturer's instructions. Each experimental condition included 5 animals per group and monitoring once a week. For the evaluation of LNA-anti-miR-133a administration into spontaneous lung metastasis of osteosarcoma model mice, individual mice were injected with 10 mg/kg of LNA-anti-miR-133a or saline via the tail vain. LNA were injected on following days 4, 11, 18, 25, 32 postinoculation of 143B-Luc cells. Each experimental condition included 10 animals per group. The development of subsequent lung metastasis was monitored once a week in vivo by the bioluminescent imaging described above for 5 weeks. All data were analyzed using LivingImage software (version 2.50, Xenogen). On day 36, the primary tumor and lung in 5 mice of each group were resected at necropsy for their weight, bioluminescent, and histological analyses. The blood examination, weight of whole body as well as heart, liver, and skeletal muscle, and histopathological examination were performed for the assessment of toxicity.
To extend the in vitro findings and to determine whether silencing of miR-133a could be an effective therapeutic option for osteosarcoma treatment, the effect of LNA-133a on a spontaneous lung metastasis model of osteosarcoma was examined. Experimentally, 1.5×10^6 cells of 143B transfected with firefly luciferase gene (143B-luc) were implanted orthotopically into the right proximal tibia of athymic nude mice. The implanted tumor growth and the presence of distant metastases were analyzed weekly for luciferase bioluminescence using an in vivo imaging system (IVIS). […] To assess the efficacy of the new treatment protocol, results were compared with three control groups (n=10 each): a saline control group, an LNA group, and a CDDP group. At 5 weeks, half the mice in each group were euthanized for further analysis; the remaining mice were monitored for survival.

143B cells = experiment: qRT-PCR of miRNAs and CD133 mRNA in drug-treated 143B cells; assay type: cell-based, human; conditions: for CD133 mRNA expression: 143B cells; for expression of miR-1, miR-10b, and miR-133a: 3 days treatment, relative to untreated 143B cells
Text: (§2) RNA isolation and quantitative real-time RT-PCR of mRNAs and miRNAs. Total RNA was purified from cells and tumor tissues with an RNeasy Mini Kit and RNase-Free DNase Set (QIAGEN). For quantitative polymerase chain reaction (qPCR) of mRNAs, cDNA was synthesized using High-Capacity cDNA Reverse Transcription Kit (Applied Biosystems). For each qPCR reaction, equal amounts of cDNA were mixed with Platinum SYBER Green qPCR SuperMix (Invitrogen) and specific primers (Table 1). Gene expression levels were normalized by beta actin (ACTB) or glyceraldehyde 3-phosphate dehydrogenase (GAPDH). For qPCR of miRNAs, miRNA was converted to cDNA using the TaqMan MicroRNA Reverse Transcription Kit (Applied Biosystems). RNU6B small nuclear RNA was amplified as an internal control. qPCR was performed using each miRNA-specific probe included with the TaqMan MicroRNA Assay on a Real-Time PCR System 7300 and SDS software (Applied Biosystems).
In addition, the expression of miR-133a was enhanced by cisplatin in CD133^low HOS cells. […] CDDP-treated CD133^low HOS cells could form tumors with as few as 100 cells per injection, whereas the untreated CD133^low HOS cells could not (FIG. 23 and Table 9). […] Therefore, we reasoned that silencing of miR-133a before or during chemotherapy would prevent the increase of the expression of miR-133a, which enhanced TIC phenotypes and was induced by chemotherapeutics.

CD133^low HOS cells = experiment: miR-133a expression in cisplatin-treated CD133low HOS cells; assay type: cell-based, human
Text: as §2

CD133^low HOS-luc cells = experiment: tumorigenicity of CDDP-treated CD133low HOS-luc cells in mice; assay type: in vivo
Protocol: as §1, with “A 100 μL volume of solution containing freshly isolated CD133^high and CD133^low HOS-Luc (10^2, 10^3, 10^4, 10^5 cells per site) or 143B-Luc (1.5×10^6) was injected while slowly moving back the needle.” left out
Monitoring tumor growth, lung metastasis, and toxicity with/without LAN-anti-miR-133a. […] Ten minutes later, photons from firefly luciferase were counted using the IVIS imaging system (Xenogen Corp.) according to the manufacturer's instructions. […] The development of subsequent lung metastasis was monitored once a week in vivo by the bioluminescent imaging described above for 5 weeks. All data were analyzed using LivingImage software (version 2.50, Xenogen). […]

CD133^low SaOS2 cells [1] = experiment: siRNA knockdown, cell growth in the presence of cisplatin; assay type: cell-based, human; conditions: siRNA 100 nM, 72 h after transfection
Protocol: (§3) Transfection with synthetic miRNAs, LNAs, and siRNAs. Synthetic hsa-miRs (Pre-miR-hsa-miR-1, -10b, -133a, and negative control (NC; Applied Biosystems, Table 2) and locked nucleic acids (LNAs) (LNA-1, -10b, -133a, and negative control, Exiqon, Table 3) were transfected into each type of cells at 30 nM each (final concentration) using DharmaFECT 1(GE Healthcare). Synthetic siRNAs (Bonac corporation, Table 4) were transfected into each type of cells at 100 nM each (final concentration) using DharmaFECT 1 (GE Healthcare). After 24 hours of incubation, cells were treated with chemotherapeutic agents for cytotoxicity assay or reseeded into invasion chambers for invasion assay.
(§4) Next, the expression of these molecules was reduced using siRNA-induced gene knockdown system to investigate whether these candidates are functionally important targets of miR-133a in osteosarcoma cells.

CD133^low SaOS2 cells [2] = experiment: siRNA knockdown, invasion assay; assay type: cell-based, human; conditions: siRNA 100 nM, 72 h after transfection
Protocol: Invasion assay. Invasion assays were performed by using 24-well BD BioCoat Invasion Chambers with Matrigel (Becton-Dickinson). 1×10^5 cells, suspended in 500 μL DMEM or RPMI 1640 medium without FBS, were added to the upper chamber, and DMEM or RPMI 1640 medium with 10% FBS was added to the lower chamber. After incubation for 24 h or 36 h, the cells on the upper surface of the filter were completely removed by wiping them with cotton swabs. The filters were fixed in methanol and stained with 1% toluidine blue in 1% sodium tetraborate (Sysmex). Filters were then mounted onto slides, and cells on lower surfaces were counted. Each assay was performed in triplicate.
as §3, §4

miR-1 = experiment: knock-down of miR-1 in LNA-transfected CD133high SaOS2 cells; assay type: cell-based, human
Text: as §2
(§5) Transfection with synthetic miRNAs, LNAs, and siRNAs. […]

miR-10b = experiment: knock-down of miR-10b in LNA-transfected CD133high SaOS2 cells; assay type: cell-based, human
Text: as §2, §5

N.N.[Cl][Pt][Cl] [CDDP, cis-diamtninedichloroplatinum (II)]
Luminescence of lung (mean) (143B-luc; IVIS bioluminescence): 2855
tumor growth (143B-luc; compared to the other groups, LNA-133a 10 mg kg-1 i.v., CDDP 2 mg kg-1 i.p.): No significant differences in tumor growth
Lung metastasis (mice with metastasis / mice in group) (143B-luc; day 35): 8/10
Tumor weight (mean) (143B-luc; day 36, LNA-133a 10 mg kg-1 i.v., CDDP i.p.): 3.957 g
CD133 mRNA expression (143B cells): induction
CD133 mRNA expression (143B cells; listed as cisplatin): induced
expression of miR-1, miR-10b, and miR-133a (143B cells): increased level
expression of miR-133a (CD133^low HOS cells): enhanced
Tumor Incidence (CD133^low HOS-luc cells; 100 cells per injection, cells treated with CDDP): 5/5
in vivo tumorigenicity of CD133low HOS population (CD133^low HOS-luc cells; mouse, in vivo): increased in vivo tumorigenicity

COc1cccc2c1C(=O)c1c(O)c3c(c(O)c1C2=O)C[C@@](O)(C(=O)CO)C[C@@H]3O[C@H]1C[C@H](N)[C@H](O)[C@H](C)O1 [DOX, doxorubicin]
CD133 mRNA expression (143B cells): induction
expression of miR-1, miR-10b, and miR-133a (143B cells): increased level

ANXA2: synthetic siRNA against ANXA2 (Bonac corporation), Table 4 (sense UGACCAAGAUGCUCGGGAUTT; antisense AUCCCGAGCAUCUUGGUCATT; sugars from the 5' end r19 d2, backbone not given here)
drug resistance after knockdown (CD133^low SaOS2 cells [1]): enhanced drug resistance
invasiveness after knockdown (CD133^low SaOS2 cells [2]): enhanced invasiveness

DUSP11: synthetic siRNA against DUSP11 (Bonac corporation), Table 4 (sense CCAGAGGAUUUGCCAGAAATT; antisense UGUGUCUCGGAUUAGGAAGTT; sugars from the 5' end r19 d2, backbone not given here)
drug resistance after knockdown (CD133^low SaOS2 cells [1]): enhanced drug resistance
invasiveness after knockdown (CD133^low SaOS2 cells [2]): enhanced invasiveness

LNA-1: locked nucleic acid antisense to hsa-miR-1-2, 5′-ACATACTTCTTTACATTCCA-3′ (Exiqon) (LNA-modified (Exiqon), pattern not given here)
miR-1 expression (miR-1): knock-down

LNA-10b: locked nucleic acid antisense to hsa-miR-10b, 5′-ACAAATTCGGTTCTACAGGGT-3′ (Exiqon) (LNA-modified (Exiqon), pattern not given here)
miR-10b expression (miR-10b): knock-down

MAST4: synthetic siRNA against MAST4 (Bonac corporation), Table 4 (sense GGAGGUACCUUCUUCCAAATT; antisense UAUCAAACUUCCUCUUCUGTT; sugars from the 5' end r19 d2, backbone not given here)
drug resistance after knockdown (CD133^low SaOS2 cells [1]): enhanced drug resistance

ROD1: synthetic siRNA against ROD1 (Bonac corporation), Table 4 (sense GGGAAUGACAGCAAGAAAUTT; antisense AUUUCUUGCUGUCAUUCCCTT; sugars from the 5' end r19 d2, backbone not given here)
drug resistance after knockdown (CD133^low SaOS2 cells [1]): enhanced drug resistance

SGMS2: synthetic siRNA against SGMS2 (Bonac corporation), Table 4 (sense CCACUAGAGUGGUGGAAAATT; antisense UUUUCCACCACUCUAGUGGTT; sugars from the 5' end r19 d2, backbone not given here)
invasiveness after knockdown (CD133^low SaOS2 cells [2]): enhanced invasiveness

SNX30: synthetic siRNA against SNX30 (Bonac corporation), Table 4 (sense CCGAGAAGUUUGUGGUAAATT; antisense UUUACCACAAACUUCUCGGTT; sugars from the 5' end r19 d2, backbone not given here)
invasiveness after knockdown (CD133^low SaOS2 cells [2]): enhanced invasiveness

UBA2: synthetic siRNA against UBA2 (Bonac corporation), Table 4 (sense GGACUGGGCUGAAGUACAATT; antisense UUGUACUUCAGCCCAGUCCTT; sugars from the 5' end r19 d2, backbone not given here)
invasiveness after knockdown (CD133^low SaOS2 cells [2]): enhanced invasiveness
